Data published in patent publication US9340590B2 (priority 2011, dated 2016).
Read-outs that look alike come from different tables or passages of the source. Positions of bridges follow the written chain, without caps; N, C: chain ends. Residues, ends and D or L forms follow the SMILES beside them.

Legend:
Assay in all cases: cell-based
hNav1.3 = hNav1.3 (Homo sapiens, UniProt Q9NY46); details: IonWorks Quattro, read-out: IWQ Use Nav1.3
hNav1.5 = hNav1.5 (Homo sapiens, UniProt Q14524); details: IonWorks Quattro, read-out: IWQ Use Nav1.5
hNav1.7 = hNav1.7 (Homo sapiens, UniProt Q15858); format: cell-based
Chain of hNav1.7 (Q15858 whole entry, looked up): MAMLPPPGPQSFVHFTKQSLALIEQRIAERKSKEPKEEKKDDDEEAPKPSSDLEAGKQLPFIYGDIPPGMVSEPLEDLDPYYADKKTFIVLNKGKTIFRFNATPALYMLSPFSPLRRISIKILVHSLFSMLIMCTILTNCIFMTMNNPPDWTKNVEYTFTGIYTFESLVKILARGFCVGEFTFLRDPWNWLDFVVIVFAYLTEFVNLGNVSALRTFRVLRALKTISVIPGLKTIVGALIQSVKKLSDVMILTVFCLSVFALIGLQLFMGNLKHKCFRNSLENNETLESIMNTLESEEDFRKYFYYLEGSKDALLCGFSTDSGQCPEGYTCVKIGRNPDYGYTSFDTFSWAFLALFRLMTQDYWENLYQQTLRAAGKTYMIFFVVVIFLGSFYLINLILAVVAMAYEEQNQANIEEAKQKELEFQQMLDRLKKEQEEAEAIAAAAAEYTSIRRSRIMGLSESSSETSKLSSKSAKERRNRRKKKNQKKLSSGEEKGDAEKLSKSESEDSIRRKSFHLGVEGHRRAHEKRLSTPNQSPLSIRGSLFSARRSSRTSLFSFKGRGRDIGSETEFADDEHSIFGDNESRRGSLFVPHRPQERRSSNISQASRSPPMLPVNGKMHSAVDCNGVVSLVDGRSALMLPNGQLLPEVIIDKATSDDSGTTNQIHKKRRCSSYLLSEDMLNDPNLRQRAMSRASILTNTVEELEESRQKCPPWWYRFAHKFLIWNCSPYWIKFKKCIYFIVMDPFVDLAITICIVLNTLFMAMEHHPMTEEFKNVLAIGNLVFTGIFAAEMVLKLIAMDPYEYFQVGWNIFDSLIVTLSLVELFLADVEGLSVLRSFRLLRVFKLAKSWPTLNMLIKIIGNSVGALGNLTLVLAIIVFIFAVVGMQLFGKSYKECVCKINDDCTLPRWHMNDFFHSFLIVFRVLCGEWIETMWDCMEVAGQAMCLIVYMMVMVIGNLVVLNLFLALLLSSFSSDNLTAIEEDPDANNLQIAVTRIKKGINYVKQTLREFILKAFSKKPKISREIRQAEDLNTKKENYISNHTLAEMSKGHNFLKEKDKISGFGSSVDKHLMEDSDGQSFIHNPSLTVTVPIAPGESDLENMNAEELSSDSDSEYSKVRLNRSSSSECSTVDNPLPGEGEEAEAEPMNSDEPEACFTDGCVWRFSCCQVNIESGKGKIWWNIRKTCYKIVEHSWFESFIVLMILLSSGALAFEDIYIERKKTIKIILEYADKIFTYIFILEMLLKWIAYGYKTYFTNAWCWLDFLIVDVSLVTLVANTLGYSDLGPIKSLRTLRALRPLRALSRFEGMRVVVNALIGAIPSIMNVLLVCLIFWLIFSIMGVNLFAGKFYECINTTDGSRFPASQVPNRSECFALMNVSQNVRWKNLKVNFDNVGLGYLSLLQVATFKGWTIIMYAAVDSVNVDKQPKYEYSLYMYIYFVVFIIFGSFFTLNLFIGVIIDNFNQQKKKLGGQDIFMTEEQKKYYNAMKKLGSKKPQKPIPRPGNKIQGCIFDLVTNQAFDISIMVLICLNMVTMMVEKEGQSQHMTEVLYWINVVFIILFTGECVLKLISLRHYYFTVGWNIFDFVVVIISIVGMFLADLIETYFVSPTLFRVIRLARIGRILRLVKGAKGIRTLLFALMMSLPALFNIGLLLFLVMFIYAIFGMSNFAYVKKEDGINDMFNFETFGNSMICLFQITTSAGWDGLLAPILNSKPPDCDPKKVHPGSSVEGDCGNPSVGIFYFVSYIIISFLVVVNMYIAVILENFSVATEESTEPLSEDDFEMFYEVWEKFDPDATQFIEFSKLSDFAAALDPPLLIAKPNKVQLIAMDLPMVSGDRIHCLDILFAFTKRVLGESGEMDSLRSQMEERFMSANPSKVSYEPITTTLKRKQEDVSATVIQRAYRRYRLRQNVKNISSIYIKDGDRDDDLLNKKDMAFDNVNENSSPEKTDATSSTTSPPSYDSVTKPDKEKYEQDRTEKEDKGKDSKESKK

Chain of hNav1.3 (Q9NY46 whole entry, looked up): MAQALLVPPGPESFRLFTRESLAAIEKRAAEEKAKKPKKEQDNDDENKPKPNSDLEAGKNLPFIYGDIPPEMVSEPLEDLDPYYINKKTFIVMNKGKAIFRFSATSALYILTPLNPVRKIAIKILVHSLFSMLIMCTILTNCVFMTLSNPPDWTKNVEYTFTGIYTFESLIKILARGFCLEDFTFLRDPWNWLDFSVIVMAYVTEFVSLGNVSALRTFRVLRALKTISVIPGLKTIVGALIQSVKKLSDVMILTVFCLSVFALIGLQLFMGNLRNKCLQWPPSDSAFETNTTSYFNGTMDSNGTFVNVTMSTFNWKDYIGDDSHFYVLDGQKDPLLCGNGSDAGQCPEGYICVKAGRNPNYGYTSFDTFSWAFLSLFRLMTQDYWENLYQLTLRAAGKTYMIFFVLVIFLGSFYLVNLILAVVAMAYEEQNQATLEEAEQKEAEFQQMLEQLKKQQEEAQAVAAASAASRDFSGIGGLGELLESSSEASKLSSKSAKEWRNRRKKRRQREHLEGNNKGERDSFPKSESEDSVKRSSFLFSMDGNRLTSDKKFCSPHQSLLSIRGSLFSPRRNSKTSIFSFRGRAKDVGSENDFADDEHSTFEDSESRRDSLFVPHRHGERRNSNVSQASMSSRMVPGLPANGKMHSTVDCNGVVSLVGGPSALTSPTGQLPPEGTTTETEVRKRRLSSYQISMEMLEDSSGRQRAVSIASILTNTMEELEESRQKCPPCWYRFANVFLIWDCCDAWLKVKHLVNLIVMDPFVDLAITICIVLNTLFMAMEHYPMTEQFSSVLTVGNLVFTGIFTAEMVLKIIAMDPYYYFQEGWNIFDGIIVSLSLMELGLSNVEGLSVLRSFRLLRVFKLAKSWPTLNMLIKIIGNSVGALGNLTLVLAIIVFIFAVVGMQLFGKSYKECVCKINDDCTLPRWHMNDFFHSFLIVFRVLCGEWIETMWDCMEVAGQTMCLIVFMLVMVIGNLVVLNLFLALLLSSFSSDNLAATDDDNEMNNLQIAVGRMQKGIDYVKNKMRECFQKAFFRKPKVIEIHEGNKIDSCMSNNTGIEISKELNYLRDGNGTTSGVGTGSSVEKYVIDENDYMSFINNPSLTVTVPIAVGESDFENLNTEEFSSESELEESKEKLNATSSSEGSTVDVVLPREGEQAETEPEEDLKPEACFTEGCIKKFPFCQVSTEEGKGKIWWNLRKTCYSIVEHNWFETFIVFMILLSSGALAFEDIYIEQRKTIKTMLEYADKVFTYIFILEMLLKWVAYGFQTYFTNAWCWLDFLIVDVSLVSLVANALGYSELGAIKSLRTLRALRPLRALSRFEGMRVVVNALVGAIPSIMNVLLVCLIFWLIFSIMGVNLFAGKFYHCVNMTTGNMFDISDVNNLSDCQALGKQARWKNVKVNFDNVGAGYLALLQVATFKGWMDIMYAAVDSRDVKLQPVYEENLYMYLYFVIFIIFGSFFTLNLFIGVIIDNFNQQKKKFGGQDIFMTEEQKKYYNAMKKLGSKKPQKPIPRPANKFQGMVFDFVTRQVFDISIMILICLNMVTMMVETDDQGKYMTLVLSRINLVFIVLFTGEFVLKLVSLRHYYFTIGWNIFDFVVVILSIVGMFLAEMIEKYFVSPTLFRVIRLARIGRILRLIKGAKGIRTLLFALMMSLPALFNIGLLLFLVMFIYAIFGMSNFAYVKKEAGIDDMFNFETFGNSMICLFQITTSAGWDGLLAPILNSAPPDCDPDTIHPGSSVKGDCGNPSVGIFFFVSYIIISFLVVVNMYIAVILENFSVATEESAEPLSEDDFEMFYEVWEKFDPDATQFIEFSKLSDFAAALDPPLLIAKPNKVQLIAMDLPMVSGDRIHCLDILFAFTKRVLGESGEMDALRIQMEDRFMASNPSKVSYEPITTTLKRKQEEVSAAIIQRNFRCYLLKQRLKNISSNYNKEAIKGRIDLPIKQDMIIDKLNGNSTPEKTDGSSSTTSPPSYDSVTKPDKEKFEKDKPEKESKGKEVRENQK

SMILES	IC50 (hNav1.3; use-dependent, […])	IC50 (hNav1.5; use-dependent, […])	IC50 (hNav1.7; IonWorks Quattro, use-dependent, […], read-out: IWQ Use Nav1.7 (μm))	IC50 (hNav1.3; Use)	IC50 (hNav1.5; Use)	IC50 (hNav1.7)	IC50 (hNav1.7; IonWorks Quattro, Use, read-out: IWQ Use Nav1.7)
CC[C@H](C)[C@@H]1NC(=O)[C@@H]2CSSC[C@@H]3NC(=O)[C@H](C(C)C)NC(=O)[C@H](CC(C)C)NC(=O)[C@H](CC(N)=O)NC(=O)[C@@H]4CCCN4C(=O)[C@H](CCCNC(=N)N)NC(=O)[C@H](CSSC[C@H](NC(=O)[C@@H](N)CC(=O)O)C(=O)N[C@@H](CC(C)C)C(=O)NCC(=O)N[C@@H](Cc4ccccc4)C(=O)N[C@@H](CCSC)C(=O)N[C@@H](CCCNC(=N)N)C(=O)N[C@@H](CCCCN)C(=O)N2)NC(=O)[C@H](CSSC[C@@H](C(=O)N[C@@H](CCCCN)C(=O)N[C@@H](Cc2ccc(O)cc2)C(=O)N[C@H](C(=O)N[C@@H](Cc2ccccc2)C(=O)N[C@@H](Cc2c[nH]c4ccccc24)C(N)=O)C(C)C)NC(=O)[C@H](Cc2c[nH]c4ccccc24)NC(=O)[C@H](CCCCN)NC(=O)[C@H](Cc2c[nH]cn2)NC(=O)[C@H]([C@@H](C)O)NC(=O)[C@H](CCCNC(=N)N)NC(=O)[C@H](CO)NC3=O)NC(=O)[C@H](CCCCN)NC(=O)[C@H](CC(=O)O)NC(=O)[C@H](CC(N)=O)NC(=O)[C@H](CC(=O)O)NC(=O)[C@@H]2CCCN2C1=O [compound 87]	70 nM	7870 nM	50 nM	–	–	–	–
CSCC[C@@H]1NC(=O)[C@H](Cc2ccccc2)NC(=O)CNC(=O)[C@H](CC(C)C)NC(=O)[C@@H](NC(=O)[C@@H](N)CC(=O)O)CSSC[C@@H]2NC(=O)[C@@H]3CSSC[C@@H](C(=O)N[C@@H](CCCCN)C(=O)N[C@@H](Cc4ccc(O)cc4)C(=O)N[C@H](C(=O)N[C@@H](Cc4ccccc4)C(N)=O)C(C)C)NC(=O)[C@H](Cc4c[nH]c5ccccc45)NC(=O)[C@H](CCCCN)NC(=O)[C@H](Cc4cnc[nH]4)NC(=O)[C@H]([C@@H](C)O)NC(=O)[C@H](CCCNC(=N)N)NC(=O)[C@H](CO)NC(=O)[C@H](CSSC[C@H](NC(=O)[C@H](CCCCN)NC(=O)[C@H](CCCNC(=N)N)NC1=O)C(=O)N[C@@H](CC(N)=O)C(=O)N1CCC[C@H]1C(=O)N[C@@H](CC(=O)O)C(=O)N[C@@H](CC(N)=O)C(=O)N[C@@H](CC(=O)O)C(=O)N[C@@H](CCCCN)C(=O)N3)NC(=O)[C@H](C(C)C)NC(=O)[C@H](CC(C)C)NC(=O)[C@H](CC(N)=O)NC(=O)[C@@H]1CCCN1C(=O)[C@H](CCCNC(=N)N)NC2=O [compound 90] (H-DCLGFMRKCNPDNDKCCRPNLVCSRTHKWCKYVF-NH2; disulfide 2-17, 9-23, 16-30)	–	–	–	190 nM	14100 nM	490 nM	–
CC[C@H](C)[C@@H]1NC(=O)[C@@H]2CSSC[C@@H]3NC(=O)[C@H](C(C)C)NC(=O)[C@H](CC(C)C)NC(=O)[C@H](CC(N)=O)NC(=O)[C@@H]4CCCN4C(=O)[C@H](CCCNC(=N)N)NC(=O)[C@H](CSSC[C@H](NC(=O)[C@@H](N)CC(=O)O)C(=O)N[C@@H](CC(C)C)C(=O)NCC(=O)N[C@@H](Cc4ccccc4)C(=O)N[C@@H](CCSC)C(=O)N[C@@H](CCCNC(=N)N)C(=O)N[C@@H](CCCCN)C(=O)N2)NC(=O)[C@H](CSSC[C@@H](C(=O)N[C@@H](CCCCN)C(=O)N[C@@H](Cc2ccc(O)cc2)C(=O)N[C@H](C(=O)N[C@@H](Cc2ccccc2)C(N)=O)C(C)C)NC(=O)[C@H](Cc2c[nH]c4ccccc24)NC(=O)[C@H](CCCCN)NC(=O)[C@H](Cc2c[nH]cn2)NC(=O)[C@H]([C@@H](C)O)NC(=O)[C@H](CCCNC(=N)N)NC(=O)[C@H](CO)NC3=O)NC(=O)[C@H](CCCCN)NC(=O)[C@H](CC(=O)O)NC(=O)[C@H](CC(N)=O)NC(=O)[C@H](CO)NC(=O)[C@@H]2CCCN2C1=O [compound 91] (H-DCLGFMRKCIPSNDKCCRPNLVCSRTHKWCKYVF-NH2; disulfide 2-17, 9-23, 16-30)	–	–	–	190 nM	9580 nM	–	80 nM
